From patent publication US20160297851A1, “BROAD SPECTRUM […]” (priority 2012, published 2016)
≈ marks a conversion by molar mass, not a printed value. Where two headings read alike, the source gives them in different places.

Experiments:
[1] = tested on: Gram-negative strains (E. coli, P. aeruginosa); assay: MIC panel; assay type: cell-based; conditions: for activity in words: wild type or mutant Gram-negative strains
[2] = tested on: Gram-positive bacteria (S. epidermidis, S. aureus); assay: MIC panel; assay type: cell-based
[3] = tested on: Brevibacillus brevis ATCC 8246; assay: microbe, parasite or virus in culture; assay type: cell-based; conditions: ATCC8246
wild type E. coli MG1655 = assay: microbe, parasite or virus in culture; assay type: cell-based, Escherichia coli
[4] = tested on: wild type S. epidermidis RP62A; assay: microbe, parasite or virus in culture; assay type: cell-based, Staphylococcus epidermidis; conditions: for MIC: Sensitive strain (SPase without the resistance-conferring Pro); for minimal inhibitory concentration (MIC): Table 3, P3 position derivatives, unit not given
[5] = tested on: S. epidermidis ATCC 35984; assay: MIC of selected compounds; assay type: cell-based; conditions: Table 1
wild type S. aureus 8325 = assay: microbe, parasite or virus in culture; assay type: cell-based, Staphylococcus aureus
[6] = tested on: P. aeruginosa PAS2006 (SPase P84S); assay type: cell-based, Pseudomonas aeruginosa
[7] = tested on: wild type P. aeruginosa PAO1; assay: microbe, parasite or virus in culture; assay type: cell-based, Pseudomonas aeruginosa
[8] = tested on: lepB(P29S) S. aureus 8325; assay: microbe, parasite or virus in culture; assay type: cell-based, Staphylococcus aureus; conditions: for MIC: Sensitive (genetically sensitized) strain; for minimal inhibitory concentration (MIC): Table 3, P3 position derivatives, unit not given
[9] = tested on: S. epidermidis PAS9002 (SPase S31P); assay type: cell-based, Staphylococcus epidermidis
[10] = tested on: E. coli PAS0232 (SPase P84S); assay type: cell-based, Escherichia coli
[11] = tested on: spsB(S29P) S. epidermidis RP62A; assay: microbe, parasite or virus in culture; assay type: cell-based, Staphylococcus epidermidis
[12] = tested on: lepB(P84L) E. coli MG1655; assay: microbe, parasite or virus in culture; assay type: cell-based, Escherichia coli; conditions: for minimal inhibitory concentration (MIC): Table 3, P3 position derivatives, unit not given
[13] = tested on: S. epidermidis, S. aureus, E. coli, and P. aeruginosa; assay: MIC panel; assay type: cell-based; conditions: all bacteria / organisms tested
[14] = tested on: lepB(P84L) P. aeruginosa PAO1; assay: microbe, parasite or virus in culture; assay type: cell-based, Pseudomonas aeruginosa; conditions: for minimal inhibitory concentration (MIC): Table 3, P3 position derivatives, unit not given
[15] = tested on: Streptococcus pyogenes M1-5448; assay: microbe, parasite or virus in culture; assay type: cell-based; conditions: Streptococcus pyogenes, M15448; read-out: MIC
Lactococcus lactis = assay: microbe, parasite or virus in culture; assay type: cell-based; conditions: Lactococcus lactis, several values = different isolates/subspecies; read-out: MIC
[16] = tested on: Corynebacterium efficiens DSM 44549; assay: microbe, parasite or virus in culture; assay type: cell-based; conditions: Corynebacterium efficiens, DSM44549; read-out: MIC
[17] = tested on: Streptococcus pneumoniae R800; assay: microbe, parasite or virus in culture; assay type: cell-based; conditions: Streptococcus pneumoniae, R800; read-out: MIC
[18] = tested on: Rhodococcus opacus DSM 1069; assay: microbe, parasite or virus in culture; assay type: cell-based; conditions: Rhodococcus opacus, DSM1069; read-out: MIC
[19] = tested on: Streptococcus agalactiae COH-1; assay: microbe, parasite or virus in culture; assay type: cell-based
[20] = tested on: Rhodococcus equi ATCC 6939; assay: microbe, parasite or virus in culture; assay type: cell-based; conditions: Rhodococcus (subgen. Prescottella) equi, ATCC6939
[21] = tested on: Corynebacterium glutamicum DSM 44475; assay: microbe, parasite or virus in culture; assay type: cell-based; conditions: DSM44475
[22] = Escherichia coli, MG1655, Resistant strain (wild type), read-out: MIC
[23] = Staphylococcus epidermidis, read-out: MIC
[24] = Escherichia coli, MG1655, Sensitive (genetically sensitized) strain, read-out: MIC
[25] = Staphylococcus aureus, read-out: MIC
[26] = Pseudomonas aeruginosa, PAO1, Sensitive (genetically sensitized) strain, read-out: MIC
[27] = Sensitive (genetically sensitized) strain
[28] = Pseudomonas aeruginosa, PAO1, Resistant strain (wild type), read-out: MIC
[29] = Staphylococcus aureus, Resistant strain (wild type), read-out: MIC

With CCCCCCCCCCCCCCCC(=O)N(C)[C@H](CO)C(=O)N[C@H](C)C(=O)NCC(=O)N(C)[C@@H]1C(=O)N[C@@H](C)C(=O)N[C@H](C(=O)O)Cc2cc(N)c(O)c(c2)-c2cc1ccc2O [Compound 36] the “fold loss of activity relative to the parent compounds” value ([1]; Gram-negative pathogens) was 8 fold, the “fold loss of activity relative to the parent compounds” value [2] was 32 fold and the MIC [3] was greater than 64 µg/mL. For the same compound, the MIC (wild type E. coli MG1655; [22]) was greater than 64 µg/mL and the MIC [4, 23] was 8 µg/mL (≈ 8.93 µM).

Compound arylomycin A2 [reference compound] has an MIC (wild type E. coli MG1655; Table 1, E. coli MG1655) greater than 128 µM, an MIC [5] of 1 µM and an MIC (wild type S. aureus 8325; Table 1, S. aureus 8325) greater than 128 µM.

In the case of arylomycin C16, the MIC [6] is reported as 8 µg/mL, the MIC ([7]; Resistant strain (wild type)) is reported as greater than 128 µg/mL and the MIC [8] is reported as 2 µg/mL. The MIC [9] was greater than 128 µg/mL, the MIC (wild type E. coli MG1655; Resistant strain (wild type)) was greater than 128 µg/mL and the MIC [10] was 2 µg/mL. It also gave an MIC [11] of 8 µg/mL, an MIC [4] of 0.25 µg/mL and an MIC (wild type S. aureus 8325; Resistant strain (wild type)) greater than 128 µg/mL.

For CCCCCCCCCCCCCCCC(=O)N(C)[C@H](CO)C(=O)N[C@H](C)C(=O)NCC(=O)N(C)[C@@H]1C(=O)N[C@@H](CCCO)C(=O)N[C@H](C(=O)O)Cc2ccc(O)c(c2)-c2cc1ccc2O [Compound 31], the “minimal inhibitory concentration (MIC)” value [12] was greater than 64, the “minimal inhibitory concentration (MIC)” value [8] was greater than 64 and the activity in words [13] was “All activity was lost”. For the same compound, the “minimal inhibitory concentration (MIC)” value [14] was greater than 64 and the “minimal inhibitory concentration (MIC)” value [4] was greater than 64.

CCCCCCCCCCCCCCCC(=O)N(C)[C@H](CO)C(=O)N[C@H](C)C(=O)NCC(=O)N(C)[C@@H]1C(=O)N[C@@H](C)C(=O)N[C@H](C(=O)O)Cc2cc(c(O)c([N+](=O)[O-])c2)-c2cc1ccc2O [Arylomycin B-C16, arylomycin B-C16] was tested, and the activity in words [12] was “has activity”, the MIC [12, 24] was 2 µg/mL and the MIC [15] was 4 µg/mL (≈ 4.32 µM). The MIC (Lactococcus lactis) was 32 µg/mL (≈ 34.6 µM), the MIC [16] was 16 µg/mL (≈ 17.3 µM) and the MIC [17] was 16 µg/mL (≈ 17.3 µM). The activity in words [8] was “has activity”, the MIC [8, 25] was 8 µg/mL and the MIC [18] was 4 µg/mL (≈ 4.32 µM). The “fold more activity than arylomycin C16” value [19] was “greater than 16 fold”, the MIC ([19]; Streptococcus agalactiae, COH1) was 8 µg/mL (≈ 8.64 µM) and the MIC [3] was greater than 64 µg/mL. For the same compound, the MIC [20] was 32 µg/mL (≈ 34.6 µM), the activity in words (wild type E. coli MG1655) was “no activity” and the MIC (wild type E. coli MG1655; [22]) was greater than 64 µg/mL. The MIC [21] was 2 µg/mL (≈ 2.16 µM), the activity in words [14] was “has activity” and the MIC [14, 26] was 4 µg/mL. For the same compound, the activity in words [4] was “potent activity” and the MIC [4, 23] was 0.13 µg/mL (≈ 0.14 µM).

In the case of CCc1ccc(-c2ccc(C(=O)N(C)[C@H](CO)C(=O)N[C@H](C)C(=O)NCC(=O)N(C)[C@@H]3C(=O)N[C@@H](C)C(=O)N[C@H](C(=O)O)Cc4ccc(O)c(c4)-c4cc3ccc4O)cc2)cc1 [Compound 10], the MIC [12, 27] is reported as 16 µg/mL, the MIC ([7]; Resistant strain (wild type)) is reported as greater than 64 µg/mL and the MIC [8] is reported as 64 µg/mL. For the same compound, the MIC (wild type E. coli MG1655; Resistant strain (wild type)) was greater than 64 µg/mL, the MIC [11] was greater than 64 µg/mL and the MIC [14, 27] was greater than 64 µg/mL. The MIC [4] was 8 µg/mL (≈ 9.4 µM) and the MIC (wild type S. aureus 8325; Resistant strain (wild type)) was greater than 64 µg/mL.

With CCCCCCCCCCCCCCCC(=O)N(C)[C@H](CO)C(=O)N[C@H](C)C(=O)NCC(=O)N(C)[C@@H]1C(=O)N[C@@H](CCCCO)C(=O)N[C@H](C(=O)O)Cc2ccc(O)c(c2)-c2cc1ccc2O [Compound 32] the “minimal inhibitory concentration (MIC)” value [12] was greater than 64, the “minimal inhibitory concentration (MIC)” value [8] was greater than 64 and the activity in words [13] was “All activity was lost”. For the same compound, the “minimal inhibitory concentration (MIC)” value [14] was greater than 64 and the “minimal inhibitory concentration (MIC)” value [4] was greater than 64.

With CCCCCCCCCCCCCCCC(=O)N(C)[C@H](CO)C(=O)N[C@H](C)C(=O)NCC(=O)N(C)[C@@H]1C(=O)N[C@@H](C)C(=O)N[C@H](C(=O)O)Cc2ccc(O)c(c2)-c2cc1ccc2O [Compound 25] the activity in words [1] was “no activity”, the MIC [8, 25] was 64 µg/mL and the MIC [4, 23] was 32 µg/mL (≈ 36.3 µM).

Work on CCCCCCc1ccc(C(=O)N(C)[C@H](CO)C(=O)N[C@H](C)C(=O)NCC(=O)N(C)[C@@H]2C(=O)N[C@@H](C)C(=O)N[C@H](C(=O)O)Cc3ccc(O)c(c3)-c3cc2ccc3O)cc1 [Compound 13] yielded an MIC [12, 24] of 1 µg/mL, an MIC [7, 28] greater than 64 µg/mL and an MIC [8, 25] of 8 µg/mL. It also gave an MIC (wild type E. coli MG1655; [22]) greater than 64 µg/mL, an MIC [11, 23] of 16 µg/mL (≈ 19.3 µM) and an MIC [14, 26] greater than 64 µg/mL. It also gave an MIC [4, 23] of 1 µg/mL (≈ 1.2 µM) and an MIC (wild type S. aureus 8325; [29]) of 16 µg/mL.

CCCCCCCCCCCCCCCC(=O)N(C)[C@H](CO)C(=O)N(C)[C@H](C)C(=O)NCC(=O)N(C)[C@@H]1C(=O)N[C@@H](C)C(=O)N[C@H](C(=O)O)Cc2ccc(O)c(c2)-c2cc1ccc2O [Compound 18] was tested, and the activity in words [1] was “complete loss of activity”, the MIC [12, 24] was greater than 64 µg/mL and the MIC [7, 28] was greater than 64 µg/mL. The MIC [8, 25] was greater than 64 µg/mL, the MIC (wild type E. coli MG1655; [22]) was greater than 64 µg/mL and the activity in words [11] was “retained full activity”. The MIC [11, 23] was greater than 64 µg/mL, the MIC [14, 26] was greater than 64 µg/mL and the MIC [4, 23] was greater than 64 µg/mL. For the same compound, the MIC (wild type S. aureus 8325; [29]) was greater than 64 µg/mL.
